System: T1, Aat1
T1 construct: full length, 6x-His-tag in pET-30a(+) (EcoRI/HindIII), E. coli Rosetta-gami 2(DE3)pLysS, Ni-NTA purified
Assay: UHPLC product quantification at […] nm, Michaelis-Menten fit
Format: biochemical, Zea mays
Settings: 100 mM potassium phosphate pH 8.0, 30 °C

[1] = 60 µM malonyl-CoA, substrate 5-120 µM
[2] = acyl donor, 120 µM cyanidin 3-O-glucoside, donor 5-30 µM

| Compound | Km [1] [µM] | Km [2] [µM] | also measured |
| --- | --- | --- | --- |
| OC[C@H]1O[C@@H](Oc2cc3c(O)cc(O)cc3[o+]c2-c2ccc(O)cc2)[C@H](O)[C@@H](O)[C@@H]1O [Pelargonidin 3-O-Glucoside] | 8.92 ± 0.41 |  |  |
| CC(C)(COP(=O)(O)OP(=O)(O)OC[C@H]1O[C@@H](n2cnc3c(N)ncnc32)[C@H](O)[C@@H]1OP(=O)(O)O)[C@@H](O)C(=O)NCCC(=O)NCCSC(=O)CC(=O)O [Malonyl-CoA] |  | 40.12 ± 0.04 |  |
| O=C(O)CC(=O)OC[C@H]1O[C@@H](Oc2cc3c(O)cc(O)cc3[o+]c2-c2ccc(O)c(O)c2)[C@H](O)[C@@H](O)[C@@H]1O [compound 2, Cyanidin 3-O-6”-Malonylglucoside] |  |  | Km (60 µM malonyl-CoA, substrate 2.5-30 µM, semi-preparative fraction of 91.95% purity): 1.33 ± 3.97 µM |
| CC(C)(COP(=O)(O)OP(=O)(O)OC[C@H]1O[C@@H](n2cnc3c(N)ncnc32)[C@H](O)[C@@H]1OP(=O)(O)O)[C@@H](O)C(=O)NCCC(=O)NCCSC(=O)CCC(=O)O [Succinyl-CoA] |  | 60.09 ± 0.02 |  |

The next lines start with results.

| Km [1] [µM] | Km [2] [µM] | Compound | also measured |
| --- | --- | --- | --- |
| 13.1 ± 0.23 |  | OC[C@H]1O[C@@H](Oc2cc3c(O)cc(O)cc3[o+]c2-c2ccc(O)c(O)c2)[C@H](O)[C@@H](O)[C@@H]1O [compound 1, Cyanidin 3-O-Glucoside] |  |
| 5.14 ± 0.93 |  | COc1cc(-c2[o+]c3cc(O)cc(O)c3cc2O[C@@H]2O[C@H](CO)[C@@H](O)[C@H](O)[C@H]2O)ccc1O [Peonidin 3-O-Glucoside] |  |

Source: article PMC8037723, “Functional Characterization of an Anthocyanin Dimalonyltransferase in Maize” (Molecules, 2021)
